In brackets after ≈: the same amount, converted by molar mass.
Experiments:
Staphylococcus aureus [1] = assay: Antibacterial activity against Staphylococcus aureus ATCC 25923 after 18 to 24 hrs by microdilution assay; type: functional
Enterococcus faecalis [2] = assay: Antibacterial activity against Enterococcus faecalis ATCC 29212 after 18 to 24 hrs by microdilution assay; type: functional
Enterococcus faecalis [3] = assay: Antibacterial activity against vancomycin-resistant Enterococcus faecalis JH2-2::C1 after 18 to 24 hrs by microdilution assay; type: functional
Staphylococcus aureus [4] = assay: Antibacterial activity against methicillin and linezolid resistant Staphylococcus aureus NRS 119 clinical isolate after 18 to 24 hrs by microdilution assay; type: functional
[5] = target: T1, D-alanine--D-alanine ligase (Enterococcus faecalis (strain ATCC 700802 / V583), UniProt Q47758); assay: Inhibition of Enterococcus faecalis JH2-2 C-terminal 6His-tagged DdlB expressed in Escherichia coli LMG194 preincubated for 30 mins followed by substrate addition and measured after 20 mins by Biomol Green reagent assay
T1 sequence (Q47758 whole entry): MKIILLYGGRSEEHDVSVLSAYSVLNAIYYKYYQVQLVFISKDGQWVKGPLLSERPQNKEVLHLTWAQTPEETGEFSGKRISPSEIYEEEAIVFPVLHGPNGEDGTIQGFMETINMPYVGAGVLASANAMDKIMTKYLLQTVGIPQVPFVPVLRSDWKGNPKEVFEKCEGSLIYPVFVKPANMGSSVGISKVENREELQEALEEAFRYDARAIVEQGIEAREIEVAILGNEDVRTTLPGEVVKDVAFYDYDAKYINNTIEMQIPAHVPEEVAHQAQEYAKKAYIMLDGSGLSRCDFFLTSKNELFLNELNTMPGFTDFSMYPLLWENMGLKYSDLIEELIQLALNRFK

Staphylococcus aureus [6] = assay: Antibacterial activity against hospital-acquired methicillin and vacomycin resistant Staphylococcus aureus VRS-1 after 18 to 24 hrs by microdilution assay; type: functional
Staphylococcus aureus [7] = assay: Antibacterial activity against hospital-acquired methicillin/ciprofloxacin/moxifloxacin resistant Staphylococcus aureus SA 481 after 18 to 24 hrs by microdilution assay; type: functional
Staphylococcus aureus [8] = assay: Antibacterial activity against community-acquired methicillin and erythromycin resistant Staphylococcus aureus SA 325 after 18 to 24 hrs by microdilution assay; type: functional
Staphylococcus aureus [9] = assay: Antibacterial activity against methicillin and vancomycin intermediate resistant Staphylococcus aureus MU50 after 18 to 24 hrs by microdilution assay; type: functional
Enterococcus faecalis [10] = assay: Antibacterial activity against vancomycin-resistant Enterococcus faecalis BM 4575 clinical isolate after 18 to 24 hrs by microdilution assay; type: functional
Enterococcus faecalis [11] = assay: Antibacterial activity against vancomycin-resistant Enterococcus faecalis BM 4390 after 18 to 24 hrs by microdilution assay; type: functional

Row | SMILES | MIC (Staphylococcus aureus [1]) [µM] | MIC (Enterococcus faecalis [2]) [µM] | MIC (Enterococcus faecalis [3]) [µM] | MIC (Staphylococcus aureus [4]) [µM] | IC50 [5] [µM] | MIC (Staphylococcus aureus [6]) [µM] | MIC (Staphylococcus aureus [7]) [µM] | MIC (Staphylococcus aureus [8]) [µM] | MIC (Staphylococcus aureus [9]) [µM] | MIC (Enterococcus faecalis [10]) [µM] | MIC (Enterococcus faecalis [11]) [µM]
1 | O=C(NNC(=S)Nc1cccc(Cl)c1)c1ccccc1 | > 100 | > 400 |  |  |  |  |  |  |  |  | 
2 | O=C(NNC(=S)Nc1ccc(Cl)cc1)c1ccccc1 | > 100 | > 400 |  |  |  |  |  |  |  |  | 
3 | O=C(NNC(=S)Nc1ccccc1Cl)c1ccccc1 | > 100 | > 400 |  |  |  |  |  |  |  |  | 
4 | O=C(NNC(=S)Nc1ccccc1)c1ccccc1O | > 100 | > 400 | > 100 | > 100 | 0.8 | > 100 | > 100 | > 100 | > 100 | > 100 | > 100
5 | O=C(NNC(=S)Nc1ccc(Cl)c(Cl)c1)c1ccc(O)cc1 | > 100 | > 400 |  |  |  |  |  |  |  |  | 
6 | O=C(NNC(=S)Nc1ccc(Cl)c(Cl)c1)c1cccc(O)c1 | > 100 | > 400 |  |  |  |  |  |  |  |  | 
7 | O=c1c2ccccc2ncn1NC(=S)Nc1ccccc1 | > 100 | > 400 |  |  |  |  |  |  |  |  | 
8 | O=C(NNC(=S)Nc1cccc2ccccc12)c1ccccc1O | > 100 | > 400 | > 100 | > 100 | 0.52 | > 100 | > 100 | > 100 | > 100 | > 100 | > 100
9 | O=C(NNC(=S)Nc1cccc(Cl)c1)c1ccccc1O | 100 (≈ 32.2 µg/mL) | 400 (≈ 129 µg/mL) | > 100 | > 100 | 0.63 | > 100 | > 100 | 100 (≈ 32.2 µg/mL) | > 100 | > 100 | > 100
10 | O=C(NNC(=O)c1ccccc1)Nc1ccc(Cl)c(Cl)c1 | > 100 | > 100 |  |  |  |  |  |  |  |  | 
11 | O=C(NNC(=S)Nc1ccc(OC(F)(F)F)cc1)c1ccccc1O | 25 (≈ 9.28 µg/mL) | 50 (≈ 18.6 µg/mL) | 100 (≈ 37.1 µg/mL) | 100 (≈ 37.1 µg/mL) | 0.7 | > 100 | > 100 | 100 (≈ 37.1 µg/mL) | > 100 | > 100 | > 100
12 | Nc1ccc(C(=O)NNC(=S)Nc2ccc(Cl)c(Cl)c2)c(O)c1 | > 100 | > 400 | > 100 | > 100 | 0.99 | > 100 | > 100 | > 100 | > 100 | > 100 | > 100
13 | O=C(NNC(=S)Nc1ccccc1F)c1ccccc1O | > 100 | 200 (≈ 61.1 µg/mL) | > 100 | > 100 | 0.97 | > 100 | > 100 | > 100 | > 100 | > 100 | > 100
14 | O=C(NNC(=O)c1ccccc1O)Nc1ccc(Cl)c(Cl)c1 | > 100 | > 100 |  |  |  |  |  |  |  |  | 
15 | N#Cc1ccc(NC(=S)NNC(=O)c2ccccc2O)cc1 | > 100 | 100 (≈ 31.2 µg/mL) | > 100 | > 100 | 0.51 | > 100 | > 100 | > 100 | > 100 | > 100 | > 100
16 | O=C(NNC(=S)Nc1ccc(Cl)c(Cl)c1)c1ccc(I)cc1O | 100 (≈ 48.2 µg/mL) | > 400 | > 100 | > 100 | 0.93 | > 100 | > 100 | > 100 | > 100 | > 100 | > 100
17 | O=C(NNC(=S)Nc1ccc(OCc2ccccc2)cc1)c1ccccc1O | 100 (≈ 39.3 µg/mL) | > 400 | > 100 | > 100 | 0.99 | > 100 | > 100 | > 100 | > 100 | > 100 | > 100
18 | O=C(NNC(=S)Nc1ccccc1F)c1ccccc1 | > 100 | > 400 |  |  |  |  |  |  |  |  | 
19 | O=C(NNC(=S)Nc1ccccc1Cl)c1ccccc1O | > 100 | 400 (≈ 129 µg/mL) | > 100 | 100 (≈ 32.2 µg/mL) | 0.79 | 100 (≈ 32.2 µg/mL) | 100 (≈ 32.2 µg/mL) | 100 (≈ 32.2 µg/mL) | > 100 | > 100 | > 100

Row | SMILES | MIC (Staphylococcus aureus [1]) [µM] | MIC (Enterococcus faecalis [2]) [µM] | MIC (Enterococcus faecalis [3]) [µM] | MIC (Staphylococcus aureus [4]) [µM] | IC50 [5] [µM] | MIC (Staphylococcus aureus [6]) [µM] | MIC (Staphylococcus aureus [7]) [µM] | MIC (Staphylococcus aureus [8]) [µM] | MIC (Staphylococcus aureus [9]) [µM] | MIC (Enterococcus faecalis [10]) [µM] | MIC (Enterococcus faecalis [11]) [µM]
20 | O=C(NNC(=S)Nc1ccc(F)cc1)c1ccccc1 | > 100 | > 400 |  |  |  |  |  |  |  |  | 
21 | CCCCCNC(=S)NNC(=O)c1ccccc1O | > 100 | > 400 | > 100 | > 100 | 0.93 | > 100 | > 100 | > 100 | > 100 | > 100 | > 100
22 | O=C(NNC(=S)Nc1cccc(F)c1)c1ccccc1O | > 100 | 200 (≈ 61.1 µg/mL) | > 100 | > 100 | 0.1 | > 100 | > 100 | > 100 | > 100 | > 100 | > 100
23 | O=C(NNC(=S)Nc1cccc(F)c1)c1ccccc1 | > 100 | > 400 |  |  |  |  |  |  |  |  | 
24 | O=C(NNC(=S)Nc1ccc([N+](=O)[O-])cc1)c1ccc(O)cc1 | > 100 | > 400 |  |  |  |  |  |  |  |  | 
25 | COc1ccc(NC(=S)NNC(=O)c2ccccc2O)cc1 | > 100 | > 400 | > 100 | > 100 | 0.71 | > 100 | > 100 | > 100 | > 100 | > 100 | > 100
26 | O=C(NNC(=S)Nc1ccc(F)cc1)c1ccccc1O | > 100 | 200 (≈ 61.1 µg/mL) | > 100 | > 100 | 0.84 | > 100 | > 100 | > 100 | > 100 | > 100 | > 100
27 | CC(=O)c1ccc(NC(=S)NNC(=O)c2ccccc2O)cc1 | 25 (≈ 8.23 µg/mL) | 50 (≈ 16.5 µg/mL) | > 100 | > 100 | 0.37 | > 100 | > 100 | > 100 | > 100 | > 100 | > 100
28 | O=C(NNC(=S)NCCCN1CCOCC1)c1ccccc1O | > 100 | > 400 | > 100 | > 100 |  | > 100 | > 100 | > 100 | > 100 | > 100 | > 100
29 | COc1ccccc1NC(=S)NNC(=O)c1ccccc1O | > 100 | > 400 | > 100 | > 100 | 0.55 | > 100 | > 100 | > 100 | > 100 | > 100 | > 100
30 | O=C(NNC(=S)Nc1ccc(Cl)cc1Cl)c1ccccc1O | 50 (≈ 17.8 µg/mL) | 50 (≈ 17.8 µg/mL) | 50 (≈ 17.8 µg/mL) | 25 (≈ 8.91 µg/mL) | 0.58 | 25 (≈ 8.91 µg/mL) | 50 (≈ 17.8 µg/mL) | 50 (≈ 17.8 µg/mL) | 50 (≈ 17.8 µg/mL) | 25 (≈ 8.91 µg/mL) | 25 (≈ 8.91 µg/mL)
31 | O=C(NNC(=S)Nc1ccc(Cl)c(Cl)c1)c1ccccc1 | > 100 | > 100 |  |  |  |  |  |  |  |  | 
32 | O=C(NNC(=S)Nc1cccnc1)c1ccccc1O | 50 (≈ 14.4 µg/mL) | 50 (≈ 14.4 µg/mL) | > 100 | > 100 |  | > 100 | > 100 | > 100 | > 100 | > 100 | > 100
33 | O=C(NNC(=S)Nc1cccc(I)c1)c1ccccc1O | > 100 | > 400 | > 100 | > 100 | 0.73 | > 100 | > 100 | > 100 | > 100 | > 100 | > 100
34 | O=C(NNC(=S)Nc1ccc(Cl)cc1)c1ccccc1O | > 100 | > 400 | > 100 | > 100 | 0.83 | > 100 | > 100 | > 100 | > 100 | > 100 | > 100
35 | O=C(O)c1cn(C2CC2)c2cc(N3CCNCC3)c(F)cc2c1=O [CIPROFLOXACIN] |  |  |  |  |  |  | 770 (≈ 255 µg/mL) |  |  |  | 
36 | CC(=O)NC[C@H]1CN(c2ccc(N3CCOCC3)c(F)c2)C(=O)O1 [LINEZOLID] |  |  |  | 190 (≈ 64.1 µg/mL) |  |  |  |  | 3 (≈ 1.01 µg/mL) |  | 
37 | CN[C@H](CC(C)C)C(=O)N[C@H]1C(=O)N[C@@H](CC(N)=O)C(=O)N[C@H]2C(=O)N[C@H]3C(=O)N[C@H](C(=O)N[C@H](C(=O)O)c4cc(O)cc(O)c4-c4cc3ccc4O)[C@H](O)c3ccc(c(Cl)c3)Oc3cc2cc(c3O[C@@H]2O[C@H](CO)[C@@H](O)[C@H](O)[C@H]2O[C@H]2C[C@](C)(N)[C@H](O)[C@H](C)O2)Oc2ccc(cc2Cl)[C@H]1O [VANCOMYCIN] |  |  | 350 (≈ 507 µg/mL) | 0.7 (≈ 1.01 µg/mL) |  | > 175 |  |  | 5 (≈ 7.25 µg/mL) |  | 700 (≈ 1010 µg/mL)

Source: ChEMBL document CHEMBL4382202, “1-(2-Hydroxybenzoyl)-thiosemicarbazides are promising antimicrobial agents targeting d-alanine-d-alanine ligase in bacterio” (Eur J Med Chem, 2018)
